The values that follow come from PMC10685318, “Trans-cyclosulfamidate mannose-configured cyclitol allows isoform-dependent inhibition of GH47 α-D-mannosidases through a bump–hole strategy” (Chemical Science, 2023).

Test [1] addresses T1, CkGH47 L310S (Caulobacter sp. K31, UniProt B0SWV2, L310S).
T1 sequence (B0SWV2 25-462 L310S): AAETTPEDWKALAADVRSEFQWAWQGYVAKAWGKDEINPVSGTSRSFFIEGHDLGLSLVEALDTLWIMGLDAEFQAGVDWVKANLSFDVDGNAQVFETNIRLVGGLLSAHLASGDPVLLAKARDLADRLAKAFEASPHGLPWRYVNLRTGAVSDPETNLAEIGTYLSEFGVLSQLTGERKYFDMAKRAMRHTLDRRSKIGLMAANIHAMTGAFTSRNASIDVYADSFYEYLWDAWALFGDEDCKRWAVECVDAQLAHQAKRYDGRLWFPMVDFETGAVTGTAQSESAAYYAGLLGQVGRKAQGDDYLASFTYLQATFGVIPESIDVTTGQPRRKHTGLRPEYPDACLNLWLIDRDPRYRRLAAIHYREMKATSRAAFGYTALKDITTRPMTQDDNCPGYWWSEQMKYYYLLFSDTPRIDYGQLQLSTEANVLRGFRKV
The test is described as follows: Inhibition constant (V0/Vi vs inhibitor, mannose detection kit) with the CkGH47 L310S mutant. Type of test: biochemical, Caulobacter K31 strain. Here is the method:
Building on this kinetic assay, we obtained an inhibition constant by pre-incubation of the enzyme and 6 for 30 minutes and then following the same time-point procedure as for the Michaelis–Menten assay. […] Similarly, a dissociation constant of 970 nM was obtained using isothermal titration calorimetry (Fig. S6 ^†). To understand the interactions between 6 and CkGH47 L310S regarding the introduced hole, a crystal structure complex was obtained (statistics in Table S2 ^†). Trans-cyclic sulfamidate 6 binds similarly to other conformationally restricted GH47 inhibitors, with additional interactions between the sulfamidate and active site residues, for example, the nitrogen and oxygen, and D249 and R363 side chains. Additionally, the introduced serine residue is indeed now in a position to hydrogen bond to the oxygen of the sulfamidate with a distance of 3.1 Å.
(§1) Trans-Cyclosulfamidate Cyclitols Males et al.
2.1 Biochemical and biological methods
To obtain Michaelis-Menten kinetics
Lastly, to achieve an inhibition constant, the
The gradient of the graph, V0/Vi
After taking each time point, the sample was heat denatured at 95 °C for 5 minutes. The reactions were conducted in triplicate and averaged. […]
microplate spectrophotometer (BioTek). The mannose detection kit (Megazyme) was used to detect […]
dehydrogenase, was monitored at 340 nm. The absorbance after hexokinase was added to the mixture […]

The subject of test [2] is GH47 model enzyme from Caulobacter K31 strain. The test is described as follows: Crystal soaks with WT GH47. It is filed as binding.
The target of test [3] is T2, BtMan2A (Bacteroides thetaiotaomicron, UniProt Q8AAK6).
T2 construct: made in house; donated by Dr. W. Offen, University of York
Description: 4-MU activity assay for bacterial GH2 β-mannosidase, purified enzyme. It is filed as biochemical. Here is the method: as §1
2.3 GH38 α-mannosidases and GH2 β-mannosidase inhibition studies
All chemicals were of analytical grade and purchased from Sigma-Aldrich unless stated otherwise.
Optimal stability of cell homogenates and enzyme working stocks was ensured by preparation and temporary storage on ice. Cell homogenates were prepared and used on the same day. Protein concentrations were quantified using the Pierce BCA Protein Assay Kit (ThermoFisher). Protein samples were measured in clear flat-bottom polystyrene 96 well microplates (Greiner Bio-One) using a EMax Plus Microplate Reader (Molecular Devices). Activity measurements of human GH38 α-mannosidases and bacterial β-mannosidase BtMan2A were performed in black flat-bottom polystyrene 96 wells microplates (Greiner Bio-One) and total fluorescence was measured using a Perkin Elmer LS-55 fluorescence spectrometer at wavelengths λex = 366 and λem = 445 nm, with the signal optimized for medium gain readings. The fluorescence values of each enzyme sample were corrected for the background signal of a blank sample containing no enzyme. In the case of IC50 determinations, values were normalized against a control sample containing enzyme without added inhibitor. […]

Structures are written as SMILES.

T2 sequence (Q8AAK6 entry or part of it, change not shown): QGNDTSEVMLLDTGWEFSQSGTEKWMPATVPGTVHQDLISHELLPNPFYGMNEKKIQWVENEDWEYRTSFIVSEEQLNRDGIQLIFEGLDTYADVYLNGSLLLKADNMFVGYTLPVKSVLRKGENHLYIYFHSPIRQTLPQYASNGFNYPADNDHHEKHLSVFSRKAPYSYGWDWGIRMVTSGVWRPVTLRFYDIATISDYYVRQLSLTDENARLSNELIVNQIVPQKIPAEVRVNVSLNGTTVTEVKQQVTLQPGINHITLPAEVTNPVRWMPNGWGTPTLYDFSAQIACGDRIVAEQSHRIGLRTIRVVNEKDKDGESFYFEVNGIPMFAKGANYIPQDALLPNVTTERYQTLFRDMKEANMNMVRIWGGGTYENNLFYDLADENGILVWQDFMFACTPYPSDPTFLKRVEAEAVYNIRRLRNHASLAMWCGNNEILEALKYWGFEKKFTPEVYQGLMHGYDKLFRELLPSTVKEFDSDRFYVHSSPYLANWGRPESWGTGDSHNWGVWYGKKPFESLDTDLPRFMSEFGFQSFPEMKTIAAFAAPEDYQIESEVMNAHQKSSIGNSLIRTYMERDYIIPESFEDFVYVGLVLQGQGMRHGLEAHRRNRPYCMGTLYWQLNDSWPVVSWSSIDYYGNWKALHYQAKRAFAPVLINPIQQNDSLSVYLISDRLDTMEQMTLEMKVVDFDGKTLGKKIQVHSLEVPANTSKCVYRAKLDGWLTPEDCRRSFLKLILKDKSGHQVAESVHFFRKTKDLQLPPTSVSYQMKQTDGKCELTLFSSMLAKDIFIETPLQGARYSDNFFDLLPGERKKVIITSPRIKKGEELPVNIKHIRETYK

For `O=S1(=O)N[C@@H]2[C@@H](O)[C@@H](O)[C@H](O)[C@@H](CO)[C@H]2O1` [compound 6, 1,6-trans-manno-cyclosulfamidate], the affinity in test [1] corresponds to a Ki of 0.574 µM. In addition, the “binding in crystal soaks” value in test [2] was “no binding”. The molecule further gave an IC50 in test [3] above 1000 µM.
